Laboratory results from PubChem BioAssay (NCI).
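How tested: cells in 96-well plates exposed to compound for 48 hours at five concentrations. Definition used: TGI = concentration required for complete inhibition of growth.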

Columns and labels:
SN12K1 renal = test: NCI tumour cell line growth inhibition, 48 h
P388 leukemia = test: NCI tumour cell line growth inhibition, 48 h

CN(CO)c1nc(N(C)CO)nc(N(C)CO)n1
TGI (SN12K1 renal): 14.1 µM
TGI (P388 leukemia): 23.8 µM
